{
  "source": "PubChem BioAssay AID2060354",
  "about": "(Molecular Pharmacology Branch, DTP, NCI, 2025)",
  "test_system": "519858-162-T-J1-PDC spheroid growth inhibition",
  "assay": "Anticancer human tumor 519858-162-T-J1-PDC patient-derived colon adenocarcinoma cell line growth inhibition [TAK]",
  "settings": "spheroids with HUVEC and MSC; for viability, T/C: stronger effect = lower value",
  "description": "Combinatorial screen of targeted agents with TAK-243 and ipatasertib in multi-cell type tumor spheroids\nA high-throughput screen of multi-cell type tumor spheroids was designed to identify active combinations of targeted small molecules and TAK-243 or ipatasertib. Complex spheroids include a stromal component modeled by human endothelial cells (HUVEC) and fibroblasts modeled by human mesenchymal stem cells (MSCs). The concentration ranges selected for each drug and investigational agent were based upon clinically achievable concentrations if the clinical Cmax of the agent was known.\nCompounds. The drugs and investigational agents: TAK-243 (785004), ipatasertib (767898), everolimus (733504), selumetinib (741078), bortezomib (756655), trametinib (758246), ixazomib (758254), vemurafenib (761431), dabrafenib (764134), sapanisertib (764658), alpelisib (765974), and copanlisib (816437), were obtained from the National Cancer Institute (NCI) Developmental Therapeutics Program Chemical Repository. The FDA-approved anticancer drug set is available from the NCI Developmental Therapeutics Program. […] The stock solutions were prepared in dimethyl sulfoxide (DMSO, Sigma-Aldrich, St. Louis, MO, cat. D2650) at 800-fold the tested concentration and stored at -70 degrees C prior to their use. All drugs and investigational agents were tested over a range starting from a high concentration at or near the clinical Cmax and decreasing in half-log increments. If the clinical Cmax for an agent had not been determined, the highest concentration tested was 10 microM.\nNCI60 Cell Culture. NCI60 cell lines were obtained from the NCI Developmental Therapeutics Program Tumor Repository. For each lot of cells, the Repository performed Applied Biosystems AmpFLSTR Identifiler testing with PCR amplification to confirm consistency with the published Identifier STR profile for each cell line. Cells were kept in continuous culture for no more than 20 passages. The optimal seeding densities for each of the cell lines at each time point assessed were determined prior to performing the concentration response studies. Briefly, the NCI60 human tumor lines were grown as monolayers in RPMI 1640 medium supplemented with 10% FBS and 2 mmol/L L-glutamine.\nAn additional 2 lines were from the NCI60 cell line panel including melanomas, MALME-3M and SK-MEL-2. Pooled donor human umbilical vein endothelial cells (HUVEC, Lonza, cat. CC-2519) and human mesenchymal stem cells (hMSC, Lonza, cat. PT-2501) were purchased from Lonza (Walkersville, MD).\nPDMR cell lines were grown in complete medium (DC medium): Dulbecco's modified Eagle's medium (DMEM)/F12 supplemented with 5% fetal bovine serum (FBS), 2 mM L-glutamine, 100 U/mL penicillin and 100 µg/ml streptomycin, 0.4 µg/ml hydrocortisone, 10 ng/ml epidermal growth factor (EGF) recombinant human protein, 24 µg/mL adenine, and 0.1 mg/mL primocin. During culture from frozen stock vials, PDMR cells were cultured in the same medium containing 10 µM Y-27632 (see Table 3). The PDCs were cultured in complete DMEM/F12 media without 10 microM Y-27632 dihydrochloride for at least two passages prior to the screen. The pooled donor HUVEC and hMSC were cultured in endothelial cell growth medium 2 (PromoCell, Heidelberg, Germany, cat. C-22011) and mesenchymal stem cell growth medium 2 (PromoCell, cat. C-28009), respectively. For all experiments, HUVEC and hMSC were used at passages </=5.\nFor the pre-screen, cell seeding densities were determined from a titration spanning the range from 5,000 to 313 cells per well. The mct-spheroids including 60% malignant cells, 25% HUVEC and 15% MSC dispensed as a mixture into U-bottom Ultra-Low Attachment 384-well plates (Corning, NY)\nHigh-throughput Drug Combination Screening.\nPrior to their inoculation into 384-well plates, malignant cells, HUVEC, and hMSC were removed from T flasks using TrypLE express (Thermo Fisher Scientific, cat. 12605036) and harvested by centrifugation for 5 min at 233 x g. […]",
  "note": "“And” between values parts separate entries of the source, which are not always exact repeats. Identical values can stand only once.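 Also: spheroids exposed to drugs for 7 days.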",
  "data": [
    {"smiles": "COc1c(OCCCN2CCOCC2)ccc2c3n(c(=NC(=O)c4cnc(N)nc4)nc12)CCN3", "values": [
      {"measurement": "viability, T/C", "setting": "compound 0.00316 µM", "result": "95.7% and 91.3%"},
      {"measurement": "viability, T/C", "setting": "compound 0.01 µM", "result": "80.9% and 100%"},
      {"measurement": "viability, T/C", "setting": "compound 0.0316 µM", "result": "81.7% and 72.2%"},
      {"measurement": "viability, T/C", "setting": "compound 0.1 µM", "result": "48.8% and 62.1%"},
      {"measurement": "viability, T/C", "setting": "compound 0.316 µM", "result": "43.9% and 52.3%"},
      {"measurement": "viability, T/C", "setting": "compound 1 µM", "result": "33.8% and 44.4%"},
      {"measurement": "IC50", "setting": "curve of compound", "result": "111 nM and 315 nM"}
    ]},
    {"smiles": "COC1CC2CCC(C)C(O)(O2)C(=O)C(=O)N2CCCCC2C(=O)OC(C(C)CC2CCC(OCCO)C(OC)C2)CC(=O)C(C)C=C(C)C(O)C(OC)C(=O)C(C)CC(C)C=CC=CC=C1C", "note": "(configuration not stated) + CC(C)NCC(C(=O)N1CCN(c2ncnc3c2C(C)CC3O)CC1)c1ccc(Cl)cc1", "values": [
      {"measurement": "IC50", "setting": "curve of first compound, second compound 0.3 µM", "result": "> 100", "unit": "nM"},
      {"measurement": "IC50", "setting": "curve of first compound, second compound 0.949 µM", "result": "> 100", "unit": "nM"},
      {"measurement": "IC50", "setting": "curve of first compound, second compound 3 µM", "result": "> 100", "unit": "nM"},
      {"measurement": "IC50", "setting": "curve of first compound, second compound 9.49 µM", "result": "> 100", "unit": "nM"},
      {"measurement": "IC50", "setting": "curve of first compound, second compound 30 µM", "result": "> 100", "unit": "nM"},
      {"measurement": "viability, T/C", "setting": "second compound 0.3 µM, first compound 0.000316 µM", "result": 102, "unit": "%"},
      {"measurement": "viability, T/C", "setting": "second compound 0.3 µM, first compound 0.001 µM", "result": 91.5, "unit": "%"},
      {"measurement": "viability, T/C", "setting": "second compound 0.3 µM, first compound 0.00316 µM", "result": 89.6, "unit": "%"},
      {"measurement": "viability, T/C", "setting": "second compound 0.3 µM, first compound 0.01 µM", "result": 90, "unit": "%"},
      {"measurement": "viability, T/C", "setting": "second compound 0.3 µM, first compound 0.0316 µM", "result": 104, "unit": "%"},
      {"measurement": "viability, T/C", "setting": "second compound 0.3 µM, first compound 0.1 µM", "result": 84.6, "unit": "%"},
      {"measurement": "viability, T/C", "setting": "second compound 0.949 µM, first compound 0.000316 µM", "result": 83.6, "unit": "%"},
      {"measurement": "viability, T/C", "setting": "second compound 0.949 µM, first compound 0.001 µM", "result": 87.1, "unit": "%"},
      {"measurement": "viability, T/C", "setting": "second compound 0.949 µM, first compound 0.00316 µM", "result": 65.8, "unit": "%"},
      {"measurement": "viability, T/C", "setting": "second compound 0.949 µM, first compound 0.01 µM", "result": 85.7, "unit": "%"},
      {"measurement": "viability, T/C", "setting": "second compound 0.949 µM, first compound 0.0316 µM", "result": 85.2, "unit": "%"},
      {"measurement": "viability, T/C", "setting": "second compound 0.949 µM, first compound 0.1 µM", "result": 71.6, "unit": "%"},
      {"measurement": "viability, T/C", "setting": "second compound 3 µM, first compound 0.000316 µM", "result": 99.2, "unit": "%"},
      {"measurement": "viability, T/C", "setting": "second compound 3 µM, first compound 0.001 µM", "result": 68.7, "unit": "%"},
      {"measurement": "viability, T/C", "setting": "second compound 3 µM, first compound 0.00316 µM", "result": 85.3, "unit": "%"},
      {"measurement": "viability, T/C", "setting": "second compound 3 µM, first compound 0.01 µM", "result": 93.4, "unit": "%"},
      {"measurement": "viability, T/C", "setting": "second compound 3 µM, first compound 0.0316 µM", "result": 85.6, "unit": "%"},
      {"measurement": "viability, T/C", "setting": "second compound 3 µM, first compound 0.1 µM", "result": 94.1, "unit": "%"},
      {"measurement": "viability, T/C", "setting": "second compound 9.49 µM, first compound 0.000316 µM", "result": 98.9, "unit": "%"},
      {"measurement": "viability, T/C", "setting": "second compound 9.49 µM, first compound 0.001 µM", "result": 84.6, "unit": "%"},
      {"measurement": "viability, T/C", "setting": "second compound 9.49 µM, first compound 0.00316 µM", "result": 75.6, "unit": "%"},
      {"measurement": "viability, T/C", "setting": "second compound 9.49 µM, first compound 0.01 µM", "result": 98, "unit": "%"},
      {"measurement": "viability, T/C", "setting": "second compound 9.49 µM, first compound 0.0316 µM", "result": 85.8, "unit": "%"},
      {"measurement": "viability, T/C", "setting": "second compound 9.49 µM, first compound 0.1 µM", "result": 73.8, "unit": "%"},
      {"measurement": "viability, T/C", "setting": "second compound 30 µM, first compound 0.000316 µM", "result": 90.2, "unit": "%"},
      {"measurement": "viability, T/C", "setting": "second compound 30 µM, first compound 0.001 µM", "result": 96.8, "unit": "%"},
      {"measurement": "viability, T/C", "setting": "second compound 30 µM, first compound 0.00316 µM", "result": 82.3, "unit": "%"},
      {"measurement": "viability, T/C", "setting": "second compound 30 µM, first compound 0.01 µM", "result": 96.8, "unit": "%"},
      {"measurement": "viability, T/C", "setting": "second compound 30 µM, first compound 0.0316 µM", "result": 97.3, "unit": "%"},
      {"measurement": "viability, T/C", "setting": "second compound 30 µM, first compound 0.1 µM", "result": 72.6, "unit": "%"}
    ]}
  ]
}
